Article PMC10004634 (PLOS ONE, 2023)
Where two headings read alike, the source gives them in different places.

Tests used:
Experiment in all cases: biochemical
Set-up in all cases: KINOMEscan scanMAX competition binding, DNA-tagged kinases, qPCR read-out, percent control at 300 nM
[1] = biological target: WEE1 (Homo sapiens, UniProt P30291)
[2] = biological target: T1, FLT3(R834Q) (Homo sapiens, UniProt P36888, R834Q)
T1 sequence (P36888 1-993 R834Q): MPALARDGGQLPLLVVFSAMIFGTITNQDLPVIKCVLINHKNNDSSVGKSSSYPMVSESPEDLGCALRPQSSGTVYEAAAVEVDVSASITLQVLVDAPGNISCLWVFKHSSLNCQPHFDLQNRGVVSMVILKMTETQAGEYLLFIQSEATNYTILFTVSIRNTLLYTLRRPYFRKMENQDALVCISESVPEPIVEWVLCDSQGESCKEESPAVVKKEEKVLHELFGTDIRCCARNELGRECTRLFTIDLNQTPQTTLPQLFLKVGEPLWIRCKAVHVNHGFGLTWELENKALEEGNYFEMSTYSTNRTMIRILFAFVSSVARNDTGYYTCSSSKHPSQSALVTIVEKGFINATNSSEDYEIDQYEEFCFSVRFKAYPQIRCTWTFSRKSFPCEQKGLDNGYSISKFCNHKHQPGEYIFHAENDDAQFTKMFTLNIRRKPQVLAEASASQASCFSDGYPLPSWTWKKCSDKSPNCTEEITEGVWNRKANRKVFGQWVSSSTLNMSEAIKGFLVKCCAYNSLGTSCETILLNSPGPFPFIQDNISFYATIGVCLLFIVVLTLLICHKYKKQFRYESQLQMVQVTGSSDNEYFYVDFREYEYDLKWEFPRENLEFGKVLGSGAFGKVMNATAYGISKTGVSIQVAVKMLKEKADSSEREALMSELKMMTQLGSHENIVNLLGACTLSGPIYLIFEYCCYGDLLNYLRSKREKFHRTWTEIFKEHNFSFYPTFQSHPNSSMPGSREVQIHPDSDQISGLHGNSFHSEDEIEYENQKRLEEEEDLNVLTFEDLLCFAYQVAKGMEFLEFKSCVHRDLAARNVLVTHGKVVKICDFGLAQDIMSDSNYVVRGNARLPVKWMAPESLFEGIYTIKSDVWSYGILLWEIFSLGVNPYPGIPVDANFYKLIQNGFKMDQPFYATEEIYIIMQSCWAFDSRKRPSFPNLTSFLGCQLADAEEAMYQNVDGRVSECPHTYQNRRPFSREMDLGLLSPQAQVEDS

[3] = biological target: T2, RIPK5 (Homo sapiens, UniProt Q6XUX3)
T2 construct: gene DSTYK
T2 sequence (Q6XUX3 1-929): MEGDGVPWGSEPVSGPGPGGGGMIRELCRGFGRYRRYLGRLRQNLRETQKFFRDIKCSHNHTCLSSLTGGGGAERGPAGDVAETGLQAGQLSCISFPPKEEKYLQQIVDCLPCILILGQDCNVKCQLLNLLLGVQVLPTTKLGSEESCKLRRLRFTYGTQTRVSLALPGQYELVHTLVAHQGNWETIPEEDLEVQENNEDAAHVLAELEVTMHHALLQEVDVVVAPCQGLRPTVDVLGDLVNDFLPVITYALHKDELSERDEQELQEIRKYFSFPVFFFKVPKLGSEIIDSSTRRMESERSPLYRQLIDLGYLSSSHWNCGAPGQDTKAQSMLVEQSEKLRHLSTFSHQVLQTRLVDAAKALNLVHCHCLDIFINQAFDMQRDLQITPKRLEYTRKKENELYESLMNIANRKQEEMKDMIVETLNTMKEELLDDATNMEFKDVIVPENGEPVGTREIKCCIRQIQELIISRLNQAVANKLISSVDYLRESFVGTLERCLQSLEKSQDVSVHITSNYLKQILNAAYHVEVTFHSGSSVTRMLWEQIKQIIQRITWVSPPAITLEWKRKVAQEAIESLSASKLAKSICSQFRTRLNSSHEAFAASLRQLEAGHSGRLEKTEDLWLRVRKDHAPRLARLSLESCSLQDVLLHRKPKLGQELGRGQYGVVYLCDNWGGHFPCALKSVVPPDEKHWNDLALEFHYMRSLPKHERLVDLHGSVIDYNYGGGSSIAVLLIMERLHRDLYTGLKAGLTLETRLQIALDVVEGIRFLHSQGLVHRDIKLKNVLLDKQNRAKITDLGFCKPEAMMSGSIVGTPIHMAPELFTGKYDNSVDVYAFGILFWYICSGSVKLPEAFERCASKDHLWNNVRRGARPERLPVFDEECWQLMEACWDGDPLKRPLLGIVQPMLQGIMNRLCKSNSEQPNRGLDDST

[4] = read-out: Percent control / Ibrutinib
[5] = read-out: Percent control / Tirabrutinib
[6] = read-out: Percent control / Zanubrutinib

Chain of WEE1 (P30291 whole entry): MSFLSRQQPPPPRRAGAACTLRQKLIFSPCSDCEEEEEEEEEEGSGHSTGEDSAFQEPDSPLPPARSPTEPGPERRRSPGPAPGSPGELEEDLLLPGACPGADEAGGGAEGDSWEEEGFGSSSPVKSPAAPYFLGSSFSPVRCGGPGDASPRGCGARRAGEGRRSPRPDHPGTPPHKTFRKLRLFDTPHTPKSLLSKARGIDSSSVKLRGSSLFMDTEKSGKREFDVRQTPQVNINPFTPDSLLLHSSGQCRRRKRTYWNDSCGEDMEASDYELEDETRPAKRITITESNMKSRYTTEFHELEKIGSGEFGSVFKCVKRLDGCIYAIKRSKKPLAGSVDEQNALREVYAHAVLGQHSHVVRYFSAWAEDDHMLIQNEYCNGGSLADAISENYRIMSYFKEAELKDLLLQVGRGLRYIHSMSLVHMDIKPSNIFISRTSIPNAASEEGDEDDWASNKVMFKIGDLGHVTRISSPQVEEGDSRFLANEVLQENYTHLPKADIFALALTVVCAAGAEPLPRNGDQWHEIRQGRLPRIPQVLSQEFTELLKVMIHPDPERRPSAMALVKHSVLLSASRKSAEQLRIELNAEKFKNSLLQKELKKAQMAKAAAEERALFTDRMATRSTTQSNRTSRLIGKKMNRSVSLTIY

CC#CC(=O)N1CCC[C@H]1c1nc(-c2ccc(C(=O)Nc3ccccn3)cc2)c2c(N)nccn12 [Acalabrutinib] gave a remaining binding at 0.3 µM ([1]; read-out: Percent control / Acalabrutinib) of 80%.

C=CC(=O)N1CCC[C@@H](n2nc(-c3ccc(Oc4ccccc4)cc3)c3c(N)ncnc32)C1 [Ibrutinib] was tested, and the remaining binding at 0.3 µM [2, 4] was 55%, the remaining binding at 0.3 µM [3, 4] was 47% and the remaining binding at 0.3 µM [1, 4] was 89%.

CC#CC(=O)N1CC[C@@H](n2c(=O)n(-c3ccc(Oc4ccccc4)cc3)c3c(N)ncnc32)C1 [Tirabrutinib] showed a remaining binding at 0.3 µM [2, 5] of 81%, a remaining binding at 0.3 µM [3, 5] of 93% and a remaining binding at 0.3 µM [1, 5] of 93%.

Work on C=CC(=O)N1CCC([C@@H]2CCNc3c(C(N)=O)c(-c4ccc(Oc5ccccc5)cc4)nn32)CC1 [Zanubrutinib] yielded a remaining binding at 0.3 µM [2, 6] of 93%, a remaining binding at 0.3 µM [3, 6] of 100% and a remaining binding at 0.3 µM [1, 6] of 100%.
